Experimental data from US6365215B1, “Oral sensory perception-affecting compositions containing dimethyl sulfoxide, complexes thereof and salts thereof” (International Flavors & Fragrances Inc., priority 2000, dated 2002).

Legend:
[1] = Comparison of perceived cooling: second compound plus dimethyl sulfoxide vs. second compound alone (Table I); assay type: in vivo; details: scale 0-10
From the text: is admixed with such “second compound(s),” the resulting mixture as stated, supra, has a highly intensified oral sensory perception effect, for example, a “highly intensified cooling effect” or a “highly intensified hot, burning effect.” Such effects are highly desirable in the use of certain oral care products such as mouthwashes, toothpastes and the like as set forth, supra. Thus, the following Table I sets forth a comparison of a “control” which is a “second compound” taken alone vs. the mixture of dimethyl sulfoxide with the said “second compound”: […]

[2] = Perceived cooling in screening base: silica toothpaste base with 0.4% saccharin (Table II); assay type: in vivo
From the text: The following Table II sets forth the effect in a screening base, in this case: silica toothpaste base containing 0.4% saccharin of various “second compounds” in admixture with dimethyl sulfoxide, as follows: […]

[3] = second compound 30 ppm + DMSO 0.1 ppm
[4] = second compound 30 ppm + DMSO 100 ppm
[5] = second compound alone 30 ppm (control for DMSO 0.1 ppm line)
[6] = second compound alone 30 ppm (control for DMSO 100 ppm line)
[7] = scaled 1-10, 2nd compound 30 ppm + DMSO 0.1 ppm
[8] = scaled 1-10, 2nd compound 30 ppm + DMSO 1 ppm
[9] = scaled 1-10, 2nd compound alone 30 ppm (line of DMSO 0.1 ppm)
[10] = scaled 1-10, 2nd compound alone 30 ppm (line of DMSO 1 ppm)

SMILES	Effect of Mixture vs. Control, perceived cooling: mixture [1, 3]	Effect of Mixture vs. Control, perceived cooling: mixture [1, 4]	Effect of Mixture vs. Control, perceived cooling: control [1, 5]	Effect of Mixture vs. Control, perceived cooling: control [1, 6]	Observed Effect Scaled at 1-10 vs. 2nd Compound Alone, perceived cooling: with DMSO [2, 7]	Observed Effect Scaled at 1-10 vs. 2nd Compound Alone, perceived cooling: with DMSO [2, 8]	Observed Effect Scaled at 1-10 vs. 2nd Compound Alone, perceived cooling: 2nd compound alone [2, 9]	Observed Effect Scaled at 1-10 vs. 2nd Compound Alone, perceived cooling: 2nd compound alone [2, 10]	also measured
CC1CCC(C(C)C)C(OC(=O)CCC(=O)O)C1 (centres unmarked) [Monomenthyl succinate, menthyl succinate]									Effect of Mixture vs. Control, perceived cooling: mixture ([1]; second compound 100 ppm + DMSO 0.1 ppm): 9.1; Effect of Mixture vs. Control, perceived cooling: mixture ([1]; second compound 100 ppm + DMSO 100 ppm): 8.7; Effect of Mixture vs. Control, perceived cooling: control ([1]; second compound alone 100 ppm (control for DMSO 0.1 ppm line)): 3.8; Effect of Mixture vs. Control, perceived cooling: control ([1]; second compound alone 100 ppm (control for DMSO 100 ppm line)): 2.5; Observed Effect Scaled at 1-10 vs. 2nd Compound Alone, perceived cooling: with DMSO ([2]; scaled 1-10, 2nd compound 100 ppm + DMSO 0.1 ppm): 9.0; Observed Effect Scaled at 1-10 vs. 2nd Compound Alone, perceived cooling: with DMSO ([2]; scaled 1-10, 2nd compound 100 ppm + DMSO 1 ppm): 9.2; Observed Effect Scaled at 1-10 vs. 2nd Compound Alone, perceived cooling: 2nd compound alone ([2]; scaled 1-10, 2nd compound alone 100 ppm (line of DMSO 0.1 ppm)): 3.5; Observed Effect Scaled at 1-10 vs. 2nd Compound Alone, perceived cooling: 2nd compound alone ([2]; scaled 1-10, 2nd compound alone 100 ppm (line of DMSO 1 ppm)): 3.7
CC1CCC(C(C)C)C(OC(=O)C(C)O)C1 (centres unmarked) [Menthyl lactate]	8.4	8.2	1.7	2.1					
CCC(C)C(C(=O)NC(C)C)C(C)C (centres unmarked) [WS 23 ®]	9.6	9.2	2.4	2.2	9.8	9.9	2.4	2.6	
CCNC(=O)C1CC(C)CCC1C(C)C (centres unmarked) [WS 3 ®]	9.3	9.0	1.5	1.6	9.1	9.0	1.7	1.6	
CC1CCC(C(C)C)C(O)C1 (centres unmarked) [Menthol, menthol]									Effect of Mixture vs. Control, perceived cooling: mixture ([1]; second compound 5 ppm + DMSO 0.1 ppm): 8; Effect of Mixture vs. Control, perceived cooling: mixture ([1]; second compound 10 ppm + DMSO 1 ppm): 9; Effect of Mixture vs. Control, perceived cooling: mixture ([1]; second compound 30 ppm + DMSO 5 ppm): 9.5; Effect of Mixture vs. Control, perceived cooling: mixture ([1]; second compound 100 ppm + DMSO 10 ppm): 8.7; Effect of Mixture vs. Control, perceived cooling: control ([1]; second compound alone 5 ppm (control for DMSO 0.1 ppm line)): 1.5; Effect of Mixture vs. Control, perceived cooling: control ([1]; second compound alone 10 ppm (control for DMSO 1 ppm line)): 1.3; Effect of Mixture vs. Control, perceived cooling: control ([1]; second compound alone 30 ppm (control for DMSO 5 ppm line)): 1.1; Effect of Mixture vs. Control, perceived cooling: control ([1]; second compound alone 100 ppm (control for DMSO 10 ppm line)): 2; Observed Effect Scaled at 1-10 vs. 2nd Compound Alone, perceived cooling: with DMSO ([2]; scaled 1-10, 2nd compound 0.50% + DMSO 1 ppm): 8.2; Observed Effect Scaled at 1-10 vs. 2nd Compound Alone, perceived cooling: 2nd compound alone ([2]; scaled 1-10, 2nd compound alone 0.50% (line of DMSO 1 ppm)): 1.6
